US11000033B2, “Ketone or oxime compound, and herbicide” (NISSAN CHEMICAL CORPORATION, priority 2014, dated 2021)

Legend:
Assay type in all cases: in vivo
Setaria viridis [1] = assay: Test Example 5: herbicidal effect by foliage application, plastic box (symbol G); conditions: 320 g/ha, 3 weeks after application
Summary of the method: (§1)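 Emulsion formulation, diluted with water to the intended rate, was applied uniformly to leaves by small sprayer. Recipients were 14-day greenhouse-grown seedlings (25° C. to 30° C.). Assessment followed at 3 weeks.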

Chenopodium album [2] = assay: Test Example 4: herbicidal effect by soil treatment (symbol O); conditions: 320 g/ha
Summary of the method: (§2)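 Seeds were sown in sterilized diluvial soil, covered with about 1.5 cm of soil, and the soil surface was sprayed with a water-diluted emulsion of the compound at a predetermined rate. Plants grew in a greenhouse at 25° C. to 30° C.; effects were scored visually 3 weeks after application.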

Setaria viridis [3] = assay: Test Example 4: herbicidal effect by soil treatment (symbol G); conditions: 320 g/ha
Summary of the method: as §2

Chenopodium album [4] = assay: Test Example 5: herbicidal effect by foliage application, plastic box (symbol O); conditions: 320 g/ha, 3 weeks after application
Summary of the method: as §1

soybean [5] = assay: Test Example 4: effect on crop by soil treatment (symbol d); conditions: 320 g/ha
Summary of the method: (§3)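 Plants grew in a 25° C. to 30° C. greenhouse after spot-sowing of seeds, including beet, rapeseed, wheat and rice, into sterilized diluvial soil under roughly 1.5 cm of cover soil.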

beet = assay: Test Example 4: effect on crop by soil treatment (symbol f); conditions: 320 g/ha
Summary of the method: as §3

Abutilon theophrasti = assay: Test Example 5: herbicidal effect by foliage application, plastic box (symbol M); conditions: 320 g/ha, 3 weeks after application
Summary of the method: as §1

wheat = assay: Test Example 4: effect on crop by soil treatment (symbol e); conditions: 320 g/ha
Summary of the method: as §3

Galium spurium = assay: Test Example 5: herbicidal effect by foliage application, plastic box (symbol Q); conditions: 320 g/ha, 3 weeks after application
Summary of the method: as §1

[6] = test system: Echinochloa crus-galli var. crus-galli; assay: Test Example 5: herbicidal effect by foliage application, plastic box (symbol H); conditions: 320 g/ha, 3 weeks after application
Summary of the method: as §1

Lolium multiflorum Lam. = assay: Test Example 4: herbicidal effect by soil treatment (symbol K); conditions: 320 g/ha
Summary of the method: as §2

Monochoria vaginalis = assay: Test Example 1: herbicidal activity, application before weed generation in submerged conditions (symbol C); conditions: application herbicide amount 320 g/ha
Summary of the method: (§4)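 Weed control was rated three weeks after treatment on a 0–5 scale, from 5% or lower up to 90% or more. Pre-emergence water-surface application of diluted emulsion at a predetermined rate was made on the day of sowing, in flooded (4 cm water) pots containing rice seedlings, kept at 25–30 °C under glass.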

Scirpus juncoides = assay: Test Example 1: herbicidal activity, application before weed generation in submerged conditions (symbol B); conditions: application herbicide amount 320 g/ha
Summary of the method: as §4

Avena fatua = assay: Test Example 4: herbicidal effect by soil treatment (symbol I); conditions: 320 g/ha
Summary of the method: as §2

Amaranthus retroflexus [7] = assay: Test Example 4: herbicidal effect by soil treatment (symbol N); conditions: 320 g/ha
Summary of the method: as §2

[8] = test system: Echinochloa crus-galli var. crus-galli; assay: Test Example 3: herbicidal effect by foliage application, Wagner pot (symbol H); conditions: application herbicide amount 320 g/ha
Summary of the method: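 Seeds sown in alluvial soil kept under 0.1–0.5 cm water, greenhouse 25–30 °C; 14 d growth. Leaves treated by small sprayer with water-diluted emulsion at a predetermined rate. Effect graded by set scale, 3 weeks.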

Amaranthus retroflexus [9] = assay: Test Example 5: herbicidal effect by foliage application, plastic box (symbol N); conditions: 320 g/ha, 3 weeks after application
Summary of the method: as §1

soybean [10] = assay: Test Example 5: effect on crop by foliage application, plastic box (symbol d); conditions: 320 g/ha, 3 weeks after application
Summary of the method: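 A greenhouse held between 25° C. and 30° C. was used to grow plants sown spot-wise, beneath ~1.5 cm of soil, in boxes of sterilized diluvial soil.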

| Structure (SMILES) | O: Chenopodium album, herbicidal effect grade (Chenopodium album [2]) | G: Setaria viridis, herbicidal effect grade (Setaria viridis [3]) | d: soybean, effect grade on crop (soybean [5]) | f: beet, effect grade on crop (beet) | e: wheat, effect grade on crop (wheat) | K: Lolium multiflorum Lam., herbicidal effect grade (Lolium multiflorum Lam.) | Herbicidal effect grade, C: Monochoria vaginalis (Monochoria vaginalis) | Herbicidal effect grade, B: Scirpus juncoides (Scirpus juncoides) | I: Avena fatua, herbicidal effect grade (Avena fatua) | N: Amaranthus retroflexus, herbicidal effect grade (Amaranthus retroflexus [7]) | herbicidal effect on H (Echinochloa crus-galli var. crus-galli), grade 0-5 [8] | other results |
| --- | --- | --- | --- | --- | --- | --- | --- | --- | --- | --- | --- | --- |
| CON=C(C)CC1CC(OS(=O)(=O)CC[Si](C)(C)C)=C(c2c(C)cc(C)cc2C)C1=O (stereo not drawn) [1-144] | 0 (Herbicidal ratio of 5% or lower (almost no effect)) | 5 (Herbicidal ratio of 90% or more (almost completely withered)) | 0 (Herbicidal ratio of 5% or lower (almost no effect)) | 0 (Herbicidal ratio of 5% or lower (almost no effect)) | 0 (Herbicidal ratio of 5% or lower (almost no effect)) | 4 (Herbicidal ratio of 70% or higher and lower than 90%) | 3 (Herbicidal ratio of 40% or higher and lower than 70%) | 5 (Herbicidal ratio of 90% or more (almost completely withered)) | 2 (Herbicidal ratio of 20% or higher and lower than 40%) | 0 (Herbicidal ratio of 5% or lower (almost no effect)) | 5 (Herbicidal ratio of 90% or more (almost completely withered)) | G: Setaria viridis, herbicidal effect (criteria 0-5) (Setaria viridis [1]): 5 (Herbicidal ratio of 90% or more (almost completely withered)); O: Chenopodium album, herbicidal effect (criteria 0-5) (Chenopodium album [4]): 0 (Herbicidal ratio of 5% or lower (almost no effect)); M: Abutilon theophrasti, herbicidal effect (criteria 0-5) (Abutilon theophrasti): 4 (Herbicidal ratio of 70% or higher and lower than 90%); Q: Galium spurium, herbicidal effect (criteria 0-5) (Galium spurium): 2 (Herbicidal ratio of 20% or higher and lower than 40%); H: Echinochloa crus-galli var. crus-galli, herbicidal effect (criteria 0-5) [6]: 5 (Herbicidal ratio of 90% or more (almost completely withered)); N: Amaranthus retroflexus, herbicidal effect (criteria 0-5) (Amaranthus retroflexus [9]): 1 (Herbicidal ratio of 5% or higher and lower than 20%); d: soybean, effect on crop (criteria 0-5) (soybean [10]): 3 (Herbicidal ratio of 40% or higher and lower than 70%) |
| CON=C(C)CC1CC(OC(=O)C(C)Oc2ccc(Oc3ccc(Cl)cc3Cl)cc2)=C(c2c(C)cc(C)cc2C)C1=O (stereo not drawn) [1-163] | 0 (Herbicidal ratio of 5% or lower (almost no effect)) | 5 (Herbicidal ratio of 90% or more (almost completely withered)) | 0 (Herbicidal ratio of 5% or lower (almost no effect)) | 0 (Herbicidal ratio of 5% or lower (almost no effect)) | 0 (Herbicidal ratio of 5% or lower (almost no effect)) | 5 (Herbicidal ratio of 90% or more (almost completely withered)) | 0 (Herbicidal ratio of 5% or lower (almost no effect)) | 4 (Herbicidal ratio of 70% or higher and lower than 90%) | 3 (Herbicidal ratio of 40% or higher and lower than 70%) | 4 (Herbicidal ratio of 70% or higher and lower than 90%) | 5 (Herbicidal ratio of 90% or more (almost completely withered)) | G: Setaria viridis, herbicidal effect grade (Setaria viridis [1]): 5 (Herbicidal ratio of 90% or more (almost completely withered)); O: Chenopodium album, herbicidal effect grade (Chenopodium album [4]): 3 (Herbicidal ratio of 40% or higher and lower than 70%); M: Abutilon theophrasti, herbicidal effect grade (Abutilon theophrasti): 4 (Herbicidal ratio of 70% or higher and lower than 90%); Q: Galium spurium, herbicidal effect grade (Galium spurium): 3 (Herbicidal ratio of 40% or higher and lower than 70%); H: Echinochloa crus-galli var. crus-galli, herbicidal effect grade [6]: 5 (Herbicidal ratio of 90% or more (almost completely withered)); N: Amaranthus retroflexus, herbicidal effect grade (Amaranthus retroflexus [9]): 3 (Herbicidal ratio of 40% or higher and lower than 70%); d: soybean, effect on crop grade (soybean [10]): 2 (Herbicidal ratio of 20% or higher and lower than 40%) |
